# Experimental data: patent US6479435B1, “Diaryl ethers and processes for their preparation and herbicidal and desiccant compositions containing them” (ISK Americas Incorporated, priority 1997, dated 2002)
# What was measured:
# Type in all cases: in vivo
# [1] = system: Johnsongrass (Sorghum halepense, SORHA); assay: Pre-emerge greenhouse herbicide test, phytotoxicity rating; details: 14 days after application, rating scale 0-100
# How it was run: (§1)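 Seeds sown in sandy loam one day before track-sprayer application of acetone solutions at 125–1000 g ai/ha (187 l/ha), then surface-watered to incorporate and bottom-watered. Injury scored visually at 14 days on a 0–100 scale (0 no damage, 100 complete death).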
# [2] = system: barnyardgrass (Echinochloa crusgalli, ECHCG); assay: as above; details: 14 days after application, rating scale 0-100
# How it was run: as §1
# [3] = system: common ragweed (Ambrosia artemisiifolia L., AMBEL); assay: as above; details: 14 days after application, rating scale 0-100
# How it was run: as §1
# [4] = system: green foxtail (Setaria viridis, SETVI); assay: as above; details: 14 days after application, rating scale 0-100
# How it was run: as §1
# [5] = system: ivyleaf morningglory (Ipomoea hederacea, IPOHE); assay: as above; details: 14 days after application, rating scale 0-100
# How it was run: as §1
# [6] = system: lambsquarters (Chenopodium album, CHEAL); assay: as above; details: 14 days after application, rating scale 0-100
# How it was run: as §1
# [7] = system: large crabgrass (Digitaria sanguinalis, DIGSA); assay: as above; details: 14 days after application, rating scale 0-100
# How it was run: as §1
# [8] = system: redroot pigweed (Amaranthus retroflexus, AMARE); assay: as above; details: 14 days after application, rating scale 0-100
# How it was run: as §1
# [9] = system: sicklepod (Cassia obtusifolia, CASOB); assay: as above; details: 14 days after application, rating scale 0-100
# How it was run: as §1
# [10] = system: velvetleaf (Abutilon theophrasti, ABUTH); assay: as above; details: 14 days after application, rating scale 0-100
# How it was run: as §1
# [11] = system: field corn (Zea mays L., var. Dekalb 535, CORN); assay: Pre-emerge greenhouse test, crop damage rating; details: 14 days after application, rating scale 0-100
# How it was run: as §1
# [12] = system: upland rice (Oryza sp., var.Tebonnet, RICE); assay: Pre-emerge greenhouse test, crop damage rating; details: 14 days after application, rating scale 0-100
# How it was run: as §1
# [13] = system: soybean (Glycine max L., var. Pella 86, SOY); assay: Pre-emerge greenhouse test, crop damage rating; design: key to SOY crop damage rating: 0 = no damage, 100 = complete death of all plants; details: 14 days after application, rating scale 0-100
# How it was run: as §1
# [14] = system: common ragweed (Ambrosia artemisiifolia L., AMBEL); assay: Post-emerge greenhouse herbicide test, phytotoxicity rating; details: 14 days after application, scale 0-100
# How it was run: (§2)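 Plants at the 2-3 leaf stage, sown 8-21 days earlier, were track-sprayed post-emergence with compound in acetone plus 0.25% v/v non-ionic surfactant at 63-1000 g ai/ha (187 l/ha). Damage was rated at 14 days on a 0-100 scale (0 none, 100 all plants dead), for both crop injury and weed control.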
# [15] = system: Johnsongrass (Sorghum halepense, SORHA); assay: as above; details: 14 days after application, scale 0-100
# How it was run: as §2
# [16] = system: barnyardgrass (Echinochloa crusgalli, ECHCG); assay: as above; details: 14 days after application, scale 0-100
# How it was run: as §2
# [17] = system: green foxtail (Setaria viridis, SETVI); assay: as above; details: 14 days after application, scale 0-100
# How it was run: as §2
# [18] = system: ivyleaf morningglory (Ipomoea hederacea, IPOHE); assay: as above; details: 14 days after application, scale 0-100
# How it was run: as §2
# [19] = system: lambsquarters (Chenopodium album, CHEAL); assay: as above; details: 14 days after application, scale 0-100
# How it was run: as §2
# [20] = system: large crabgrass (Digitaria sanguinalis, DIGSA); assay: as above; details: 14 days after application, scale 0-100
# How it was run: as §2
# [21] = system: redroot pigweed (Amaranthus retroflexus, AMARE); assay: as above; details: 14 days after application, scale 0-100
# How it was run: as §2
# [22] = system: sicklepod (Cassia obtusifolia, CASOB); assay: as above; details: 14 days after application, scale 0-100
# How it was run: as §2
# [23] = system: velvetleaf (Abutilon theophrasti, ABUTH); assay: as above; details: 14 days after application, scale 0-100
# How it was run: as §2
# [24] = system: field corn (Zea mays L., var. Dekalb 535, CORN); assay: Post-emerge greenhouse test, crop damage rating; details: 14 days after application, scale 0-100
# How it was run: as §2
# [25] = system: upland rice (Oryza sp., var.Tebonnet, RICE); assay: Post-emerge greenhouse test, crop damage rating; details: 14 days after application, scale 0-100
# How it was run: as §2
# [26] = system: soybean (Glycine max L., var. Pella 86, SOY); assay: Post-emerge greenhouse test, crop damage rating; design: key to crop damage rating SOY: 0-100 scale: 0 = no damage, 100 = complete death of all plants; details: 14 days after application, scale 0-100
# How it was run: as §2
structure (smiles),measurement,setting,value
O=c1n(-c2cc(Oc3cccc(F)n3)c(Cl)cc2F)c(=S)n2n1CCCC2 [Compound 8-25],SORHA phytotoxicity rating,[1]; Rate 125 g al/ha,70
same,SORHA phytotoxicity rating,[1]; Rate 500 g al/ha,90
same,ECHCG phytotoxicity rating,[2]; Rate 125 g al/ha,40
same,ECHCG phytotoxicity rating,[2]; Rate 500 g al/ha,100
same,AMBEL phytotoxicity rating,[3]; Rate 125 g al/ha,40
same,AMBEL phytotoxicity rating,[3]; Rate 500 g al/ha,90
same,SETVI phytotoxicity rating,[4]; Rate 125 g al/ha,100
same,SETVI phytotoxicity rating,[4]; Rate 500 g al/ha,100
same,IPOHE phytotoxicity rating,[5]; Rate 125 g al/ha,20
same,IPOHE phytotoxicity rating,[5]; Rate 500 g al/ha,20
same,CHEAL phytotoxicity rating,[6]; Rate 125 g al/ha,100
same,CHEAL phytotoxicity rating,[6]; Rate 500 g al/ha,100
same,DIGSA phytotoxicity rating,[7]; Rate 125 g al/ha,85
same,DIGSA phytotoxicity rating,[7]; Rate 500 g al/ha,100
same,AMARE phytotoxicity rating,[8]; Rate 125 g al/ha,100
same,AMARE phytotoxicity rating,[8]; Rate 500 g al/ha,100
same,CASOB phytotoxicity rating,[9]; Rate 125 g al/ha,70
same,CASOB phytotoxicity rating,[9]; Rate 500 g al/ha,100
same,ABUTH phytotoxicity rating,[10]; Rate 125 g al/ha,100
same,ABUTH phytotoxicity rating,[10]; Rate 500 g al/ha,100
same,CORN crop damage rating,[11]; Rate 125 g al/ha,0
same,CORN crop damage rating,[11]; Rate 500 g al/ha,40
same,RICE crop damage rating,[12]; Rate 125 g al/ha,15
same,RICE crop damage rating,[12]; Rate 500 g al/ha,70
same,SOY crop damage rating,[13]; Rate 125 g al/ha,0
same,SOY crop damage rating,[13]; Rate 500 g al/ha,20
same,phytotoxicity rating AMBEL,[14]; rate 63 g ai/ha,90
same,phytotoxicity rating AMBEL,[14]; rate 500 g ai/ha,90
same,phytotoxicity rating SORHA,[15]; rate 63 g ai/ha,40
same,phytotoxicity rating SORHA,[15]; rate 500 g ai/ha,60
same,phytotoxicity rating ECHCG,[16]; rate 63 g ai/ha,20
same,phytotoxicity rating ECHCG,[16]; rate 500 g ai/ha,65
same,phytotoxicity rating SETVI,[17]; rate 63 g ai/ha,80
same,phytotoxicity rating SETVI,[17]; rate 500 g ai/ha,95
same,phytotoxicity rating IPOHE,[18]; rate 63 g ai/ha,100
same,phytotoxicity rating IPOHE,[18]; rate 500 g ai/ha,100
same,phytotoxicity rating CHEAL,[19]; rate 63 g ai/ha,90
same,phytotoxicity rating CHEAL,[19]; rate 500 g ai/ha,100
same,phytotoxicity rating DIGSA,[20]; rate 63 g ai/ha,10
same,phytotoxicity rating DIGSA,[20]; rate 500 g ai/ha,40
same,phytotoxicity rating AMARE,[21]; rate 63 g ai/ha,100
same,phytotoxicity rating AMARE,[21]; rate 500 g ai/ha,100
same,phytotoxicity rating CASOB,[22]; rate 63 g ai/ha,70
same,phytotoxicity rating CASOB,[22]; rate 500 g ai/ha,100
same,phytotoxicity rating ABUTH,[23]; rate 63 g ai/ha,100
same,phytotoxicity rating ABUTH,[23]; rate 500 g ai/ha,100
same,crop damage rating CORN,[24]; rate 63 g ai/ha,10
same,crop damage rating CORN,[24]; rate 500 g ai/ha,25
same,crop damage rating RICE,[25]; rate 63 g ai/ha,10
same,crop damage rating RICE,[25]; rate 500 g ai/ha,60
same,crop damage rating SOY,[26]; rate 63 g ai/ha,70
same,crop damage rating SOY,[26]; rate 500 g ai/ha,90
